Consider 5 molecules from ChEMBL document CHEMBL1201862, “PubChem BioAssay data set” (2004).

Calls of active or inactive are those of the source.

One may read the AC50 as the concentration giving half of the maximal activity seen. As usually defined, the EC50 is the midpoint of the concentration-response curve. Usually CC50 stands for the concentration that lowers cell viability or growth by half.

The target of assay [1] is T1, Polyadenylate-binding protein 1 (Homo sapiens, UniProt P11940). The experiment in a line: PABP1 MLLE–PAM2 interaction inhibitors, dose response, miRNA deadenylation inhibitor project, biochemical, fluorescence polarization, Cy5-PAM2 peptide, secondary (AID 602260). The conditions noted are these: read-out: IC50_Mean. The class given is functional.
The target in assay [2] is T1, Polyadenylate-binding protein 1. Briefly: PABP1 MLLE–PAM2 binding inhibitor potency, dose response, biochemical, fluorescence polarization, FITC-PAM2 peptide (AID 602259). It is filed as functional. The conditions noted are these: read-out: IC50_Mean. A general note: In fluorescence polarisation assays a small probe gives low polarisation when free and higher when bound to something large.

Assay [3] concerns the target T2, Small ubiquitin-related modifier 2 (Homo sapiens, UniProt P61956). The experiment in a line: SUMO2–SIM peptide binding inhibitors, dose response, selectivity assay for SUMO1 interaction inhibitor project, biochemical, fluorescence polarization, uHTS hits (AID 624385). The class given is functional. The conditions noted are these: read-out: IC50_Mean.
Assay [4] concerns the target T3, Small ubiquitin-related modifier 1 (Homo sapiens, UniProt P63165). Briefly: inhibitors of SUMO1 peptide binding, dose response, biochemical, fluorescence polarization, uHTS hits (AID 624382). It is filed as functional. The conditions noted are these: read-out: IC50_Mean.
The target of assay [5] is T4, Probable nicotinate-nucleotide adenylyltransferase (Staphylococcus aureus (strain N315), UniProt P65502). The class given is functional, Staphylococcus aureus subsp. aureus N315.
Assay [6] addresses T4, Probable nicotinate-nucleotide adenylyltransferase. It is filed as functional, Staphylococcus aureus subsp. aureus N315. The conditions noted are these: read-out: IC50_Mean.
For assay [7], the target named is T2, Small ubiquitin-related modifier 2. Briefly: inhibitors of SUMO2 protein-protein interaction, dose response, selectivity assay for SUMO1 interaction inhibitor project, biochemical, FRET, human SUMO2, uHTS hits (AID 624384). It is filed as functional. The conditions noted are these: read-out: IC50_Mean.
Assay [8] deals with T3, Small ubiquitin-related modifier 1. Briefly: inhibitors of SUMO1 partner interactions, dose response, biochemical, FRET (AID 624383). The class given is functional. The conditions noted are these: read-out: IC50_Mean.
The target in assay [9] is FAD-linked sulfhydryl oxidase ALR (Homo sapiens, UniProt P55789). Briefly: inhibitors of human ALR sulfhydryl oxidase, dose response, biochemical, H2O2 detection, luminescence, cherry-pick (AID 493248).
The target in another assay is Mu-type opioid receptor (Homo sapiens, UniProt P35372). It is filed as functional, cell-based.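 Further: U2OS cells with beta-arrestin recruitment to OPRM1 by beta-gal complementation.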
In assay [10] the target is 5-hydroxytryptamine receptor 2A (Mus musculus, UniProt P35363). It is filed as functional, cell-based.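 Further: CHO-K1 cells with tagged receptor and beta-arrestin; agonist potency measured as compound-induced activation of the receptor.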
Assay [11] in a line: HeLa cell cytotoxicity, dose response, cytotoxicity control for MgcRacGAP inhibitor project (AID 624300). It is filed as functional.
The target of assay [12] is T5, Rac GTPase-activating protein 1 (Homo sapiens, UniProt Q9H0H5).
T5 sequence (Q9H0H5 whole entry): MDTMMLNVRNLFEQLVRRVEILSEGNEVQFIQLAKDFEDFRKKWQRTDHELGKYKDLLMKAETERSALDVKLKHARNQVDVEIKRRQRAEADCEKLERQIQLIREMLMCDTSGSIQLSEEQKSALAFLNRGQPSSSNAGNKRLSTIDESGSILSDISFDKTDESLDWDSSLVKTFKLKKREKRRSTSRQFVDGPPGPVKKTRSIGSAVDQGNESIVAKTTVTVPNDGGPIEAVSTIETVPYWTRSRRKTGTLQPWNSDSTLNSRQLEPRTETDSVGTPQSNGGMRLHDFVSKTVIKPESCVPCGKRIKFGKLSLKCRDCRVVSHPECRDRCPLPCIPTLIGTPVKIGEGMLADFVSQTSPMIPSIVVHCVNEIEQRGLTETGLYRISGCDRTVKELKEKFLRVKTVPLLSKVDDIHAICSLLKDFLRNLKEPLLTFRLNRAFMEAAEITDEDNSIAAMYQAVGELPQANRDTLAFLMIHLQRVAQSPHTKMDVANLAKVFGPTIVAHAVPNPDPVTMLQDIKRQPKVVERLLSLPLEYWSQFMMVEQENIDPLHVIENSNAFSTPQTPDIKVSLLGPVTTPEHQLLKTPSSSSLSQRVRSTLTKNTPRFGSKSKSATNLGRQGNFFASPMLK
Briefly: MgcRacGAP GTPase-activating activity inhibitors, confirmation, biochemical, ADP Hunter fluorescence, primary and confirmatory (AID 624330). The class given is functional.

Assay [13] deals with Arf-GAP with SH3 domain, ANK repeat and PH domain-containing protein 1 (Homo sapiens, UniProt Q9ULH1). The class given is functional.
Assay [14] addresses T6, DNA repair protein RAD52 homolog (Homo sapiens, UniProt P43351).
T6 sequence (P43351 whole entry): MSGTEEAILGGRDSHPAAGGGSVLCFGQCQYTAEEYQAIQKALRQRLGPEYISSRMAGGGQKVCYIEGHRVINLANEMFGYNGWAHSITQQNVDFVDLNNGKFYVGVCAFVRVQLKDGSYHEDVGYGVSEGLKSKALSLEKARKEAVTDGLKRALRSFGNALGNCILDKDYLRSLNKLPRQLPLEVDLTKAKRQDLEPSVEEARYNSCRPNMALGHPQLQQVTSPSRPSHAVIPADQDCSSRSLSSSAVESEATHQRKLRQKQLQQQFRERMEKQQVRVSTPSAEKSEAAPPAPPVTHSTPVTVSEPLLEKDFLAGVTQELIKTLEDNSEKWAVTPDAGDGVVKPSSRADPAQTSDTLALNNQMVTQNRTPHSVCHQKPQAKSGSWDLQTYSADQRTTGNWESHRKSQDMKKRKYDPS
The class given is functional, biochemical.

The nature of assay [15]: NIH/3T3 fibroblast cytotoxicity, dose response, cytotoxicity control for T. cruzi growth inhibitor project, cell-based, cherry-pick samples, set 2 (AID 651817). It is filed as functional. The conditions noted are these: NIH3T3.
A short description of assay [16]: intracellular Trypanosoma cruzi inhibitors in host cells – cell-based, plate reader, cherry-pick samples, set 3, dose response (AID 651818).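 Further: compounds incubated with infected cells for about four days.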 It is filed as functional.
Assay [17] relates to HEK293. Briefly: NOD1 signaling inhibitors, primary screen, cell-based, luminescence, uHTS (AID 1578). It is filed as functional. The conditions noted are these: Homo sapiens.
For assay [18], the system named is HEK293. The experiment in a line: cells. The class given is functional, cell-based. The conditions noted are these: Homo sapiens.
Assay [19] concerns the target T7, Heat shock factor protein 1 (Mus musculus, UniProt P38532).
T7 sequence (P38532 whole entry): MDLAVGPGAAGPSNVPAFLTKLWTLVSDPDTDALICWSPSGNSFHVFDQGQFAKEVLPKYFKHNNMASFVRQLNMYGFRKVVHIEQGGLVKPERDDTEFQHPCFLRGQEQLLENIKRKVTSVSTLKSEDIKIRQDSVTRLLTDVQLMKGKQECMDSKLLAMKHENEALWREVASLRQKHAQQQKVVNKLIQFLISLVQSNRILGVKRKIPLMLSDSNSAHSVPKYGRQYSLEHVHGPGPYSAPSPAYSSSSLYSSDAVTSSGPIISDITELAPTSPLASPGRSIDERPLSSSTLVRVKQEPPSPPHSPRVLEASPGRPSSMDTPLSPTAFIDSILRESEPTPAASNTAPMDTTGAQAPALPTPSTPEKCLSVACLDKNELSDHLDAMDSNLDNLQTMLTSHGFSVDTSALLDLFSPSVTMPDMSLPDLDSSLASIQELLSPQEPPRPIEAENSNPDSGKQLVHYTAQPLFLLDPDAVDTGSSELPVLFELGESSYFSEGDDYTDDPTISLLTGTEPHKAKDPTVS
The experiment in a line: inhibition of MG132-induced HSE-luciferase signal, confirmation, cell-based, NIH3T3, luminescence, dose retest (AID 2382).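 Further: NIH3T3 fibroblasts with HSF1-driven luciferase reporter stressed by proteasome inhibitor MG132; luminescence from HSF1-driven luciferase expression after 8 hours of MG132 stress.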 The class given is functional.

For assay [20], the system named is HEK293. Briefly: cells. It is filed as functional, cell-based. The conditions noted are these: Homo sapiens. The source holds these as a separate data set.
The test system of assay [21] is HEK293. Briefly: NOD2 signaling inhibitors in MDP-stimulated cells, cell-based, uHTS, luminescence (AID 2001). The class given is functional. The conditions noted are these: Homo sapiens.
The target in the next assay is Nonstructural protein 1 (Influenza A virus, UniProt Q194T2). It is filed as functional, Influenza A virus (A/California/07/2009(H1N1)).
The target of assay [22] is Photoreceptor-specific nuclear receptor (Homo sapiens, UniProt Q9Y5X4). It is filed as functional, cell-based.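 Further: CHO-S cells with Gal4-NCOR and VP16-NR2E3 two-hybrid luciferase reporter.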
Photoreceptor-specific nuclear receptor, sequence (Q9Y5X4 whole entry, the tested form may be a part): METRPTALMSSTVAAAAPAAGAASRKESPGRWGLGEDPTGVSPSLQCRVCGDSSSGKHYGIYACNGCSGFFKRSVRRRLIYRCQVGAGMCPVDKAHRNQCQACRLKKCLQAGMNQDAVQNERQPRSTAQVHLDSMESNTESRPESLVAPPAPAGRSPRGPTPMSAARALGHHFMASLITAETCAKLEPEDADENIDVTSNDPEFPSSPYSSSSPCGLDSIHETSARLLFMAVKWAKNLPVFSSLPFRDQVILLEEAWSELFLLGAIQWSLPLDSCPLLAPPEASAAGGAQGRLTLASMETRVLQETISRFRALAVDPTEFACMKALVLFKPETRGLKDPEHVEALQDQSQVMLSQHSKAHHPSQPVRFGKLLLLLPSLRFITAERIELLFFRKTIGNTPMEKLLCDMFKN

T1 sequence (P11940 whole entry): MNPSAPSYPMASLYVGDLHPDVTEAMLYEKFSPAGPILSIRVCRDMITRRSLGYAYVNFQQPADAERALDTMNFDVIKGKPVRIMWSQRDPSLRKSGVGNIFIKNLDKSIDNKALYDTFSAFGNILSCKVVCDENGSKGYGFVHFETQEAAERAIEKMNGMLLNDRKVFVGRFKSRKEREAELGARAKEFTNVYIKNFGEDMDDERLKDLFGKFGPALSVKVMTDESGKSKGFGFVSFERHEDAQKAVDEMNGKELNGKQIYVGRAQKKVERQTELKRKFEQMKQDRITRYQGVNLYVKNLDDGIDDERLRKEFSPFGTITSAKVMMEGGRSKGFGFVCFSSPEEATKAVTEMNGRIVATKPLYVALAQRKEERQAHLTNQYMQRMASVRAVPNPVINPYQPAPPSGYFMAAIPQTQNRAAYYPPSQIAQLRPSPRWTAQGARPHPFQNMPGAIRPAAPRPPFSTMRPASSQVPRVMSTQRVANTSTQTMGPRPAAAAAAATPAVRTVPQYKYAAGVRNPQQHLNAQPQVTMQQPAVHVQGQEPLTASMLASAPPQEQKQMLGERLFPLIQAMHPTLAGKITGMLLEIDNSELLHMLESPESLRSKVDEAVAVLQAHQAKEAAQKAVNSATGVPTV
T2 sequence (P61956 whole entry): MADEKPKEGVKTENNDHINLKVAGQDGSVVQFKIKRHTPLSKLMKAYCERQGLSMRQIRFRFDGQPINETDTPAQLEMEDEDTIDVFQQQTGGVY
T4 sequence (P65502 whole entry): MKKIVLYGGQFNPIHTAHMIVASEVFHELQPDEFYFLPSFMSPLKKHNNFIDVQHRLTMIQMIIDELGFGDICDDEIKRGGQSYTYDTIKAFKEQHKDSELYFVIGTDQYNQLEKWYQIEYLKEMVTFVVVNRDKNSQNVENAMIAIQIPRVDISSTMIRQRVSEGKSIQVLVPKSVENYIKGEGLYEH
T3 sequence (P63165 whole entry): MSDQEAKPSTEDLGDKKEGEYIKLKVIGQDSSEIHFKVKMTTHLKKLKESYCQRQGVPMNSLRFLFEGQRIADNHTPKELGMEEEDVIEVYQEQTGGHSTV
FAD-linked sulfhydryl oxidase ALR, sequence (P55789 whole entry): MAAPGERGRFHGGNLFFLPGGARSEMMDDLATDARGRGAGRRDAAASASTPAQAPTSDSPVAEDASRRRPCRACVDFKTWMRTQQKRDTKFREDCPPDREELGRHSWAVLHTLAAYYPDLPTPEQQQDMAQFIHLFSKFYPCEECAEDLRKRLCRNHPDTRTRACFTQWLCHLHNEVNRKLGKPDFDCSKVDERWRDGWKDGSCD
5-hydroxytryptamine receptor 2A, sequence (P35363 whole entry): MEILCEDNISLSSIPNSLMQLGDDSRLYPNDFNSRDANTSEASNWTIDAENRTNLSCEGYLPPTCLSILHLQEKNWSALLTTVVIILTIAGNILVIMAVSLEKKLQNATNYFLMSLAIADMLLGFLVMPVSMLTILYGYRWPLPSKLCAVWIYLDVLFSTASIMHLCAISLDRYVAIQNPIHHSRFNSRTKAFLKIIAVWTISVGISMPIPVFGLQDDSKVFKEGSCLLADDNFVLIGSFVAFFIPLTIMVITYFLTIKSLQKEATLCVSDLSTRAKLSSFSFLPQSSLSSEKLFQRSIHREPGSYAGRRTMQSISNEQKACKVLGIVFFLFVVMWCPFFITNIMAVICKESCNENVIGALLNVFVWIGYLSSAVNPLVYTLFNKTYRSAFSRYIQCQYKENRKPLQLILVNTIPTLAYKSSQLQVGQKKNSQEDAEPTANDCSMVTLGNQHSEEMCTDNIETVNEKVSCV
Nonstructural protein 1, sequence (Q194T2 whole entry, the tested form may be a part): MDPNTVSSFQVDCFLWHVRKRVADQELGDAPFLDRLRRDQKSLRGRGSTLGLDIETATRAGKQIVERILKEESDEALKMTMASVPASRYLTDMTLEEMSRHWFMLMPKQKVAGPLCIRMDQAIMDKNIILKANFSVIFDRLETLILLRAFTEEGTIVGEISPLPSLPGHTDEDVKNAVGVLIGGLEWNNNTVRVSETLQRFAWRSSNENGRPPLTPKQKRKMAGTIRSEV
Mu-type opioid receptor, sequence (P35372 whole entry): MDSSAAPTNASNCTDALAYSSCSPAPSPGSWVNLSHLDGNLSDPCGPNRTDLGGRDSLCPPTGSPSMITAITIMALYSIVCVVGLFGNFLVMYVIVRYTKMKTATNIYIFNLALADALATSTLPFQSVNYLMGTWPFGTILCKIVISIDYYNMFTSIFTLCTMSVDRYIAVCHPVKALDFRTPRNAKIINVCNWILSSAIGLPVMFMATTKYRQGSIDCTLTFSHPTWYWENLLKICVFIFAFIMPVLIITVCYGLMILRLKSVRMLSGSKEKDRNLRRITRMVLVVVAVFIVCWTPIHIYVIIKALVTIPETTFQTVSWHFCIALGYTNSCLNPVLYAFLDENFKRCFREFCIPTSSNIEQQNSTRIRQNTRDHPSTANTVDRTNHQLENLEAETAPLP
Arf-GAP with SH3 domain, ANK repeat and PH domain-containing protein 1, sequence (Q9ULH1 whole entry, the tested form may be a part): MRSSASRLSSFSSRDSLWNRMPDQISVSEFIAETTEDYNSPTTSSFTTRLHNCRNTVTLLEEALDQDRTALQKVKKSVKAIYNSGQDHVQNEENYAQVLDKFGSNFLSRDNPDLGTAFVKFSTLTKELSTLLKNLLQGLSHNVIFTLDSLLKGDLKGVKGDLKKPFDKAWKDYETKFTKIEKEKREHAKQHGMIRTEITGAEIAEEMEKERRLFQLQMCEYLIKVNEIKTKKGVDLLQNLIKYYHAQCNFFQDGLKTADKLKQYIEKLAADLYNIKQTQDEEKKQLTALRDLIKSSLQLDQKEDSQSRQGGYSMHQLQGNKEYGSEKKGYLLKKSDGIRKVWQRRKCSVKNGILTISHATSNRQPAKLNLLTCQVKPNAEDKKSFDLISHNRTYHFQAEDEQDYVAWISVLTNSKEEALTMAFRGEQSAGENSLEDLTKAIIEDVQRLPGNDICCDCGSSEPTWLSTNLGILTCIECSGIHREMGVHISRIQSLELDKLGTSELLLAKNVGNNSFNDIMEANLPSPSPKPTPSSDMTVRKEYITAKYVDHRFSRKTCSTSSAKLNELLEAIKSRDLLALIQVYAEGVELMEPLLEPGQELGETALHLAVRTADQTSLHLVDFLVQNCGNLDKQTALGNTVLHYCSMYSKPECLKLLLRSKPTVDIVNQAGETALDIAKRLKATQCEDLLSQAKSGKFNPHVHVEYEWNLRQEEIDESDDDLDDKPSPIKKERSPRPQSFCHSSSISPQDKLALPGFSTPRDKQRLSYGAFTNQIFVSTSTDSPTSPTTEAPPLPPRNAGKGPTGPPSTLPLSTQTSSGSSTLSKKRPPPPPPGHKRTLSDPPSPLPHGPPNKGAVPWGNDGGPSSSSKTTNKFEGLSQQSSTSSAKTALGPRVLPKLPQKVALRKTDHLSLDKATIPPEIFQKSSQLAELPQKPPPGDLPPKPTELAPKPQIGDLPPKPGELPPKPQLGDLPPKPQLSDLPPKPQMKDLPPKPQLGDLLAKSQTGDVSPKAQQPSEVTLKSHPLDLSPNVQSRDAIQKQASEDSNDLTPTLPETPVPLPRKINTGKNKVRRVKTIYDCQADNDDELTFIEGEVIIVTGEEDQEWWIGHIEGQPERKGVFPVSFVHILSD

In the case of `O=C(Nc1ccc2nc(-c3ccco3)c(-c3ccco3)nc2c1)N1CCN(c2ccccn2)CC1`, the IC50 was > 66 µM (inactive) in [1]; > 66 µM (inactive) in assay [2]; 8.13 µM (active) in assay [3]; 6.94 µM (active) in [4]; 8.98 µM (active) in [5]; 19.7 µM (active) in assay [6]. Also, the values for the IC50 in assay [7] and in [8] were 24.6 µM (inactive) and 51.7 µM (inactive), respectively.
Turning to `CNCCc1ccc(O)c(O)c1`, the concentration at half-maximal activity (AC50) in assay [9] was 4.11 µM (active). Also, the figures for the EC50 (on Mu-type opioid receptor; in [10]) were 92.3 µM (inactive) and 0.0874 µM (active), respectively.
For `C[n+]1c(-c2ccc(C=NNC(=O)c3ccc(C(=O)NN=Cc4ccc(-c5cn6ccccc6[n+]5C)cc4)cc3)cc2)cn2ccccc21`, in assay [11], the CC50 was 100 µM (active). Further, the IC50 in [12] is 66.4 µM (active); in assay [13] it was 22.3 µM (inactive). For the same molecule, the AC50 in assay [14] is 1.52 µM (active).
In the case of `C[C@H]1CN([C@@H](C)CO)C(=O)c2cccc(NC(=O)c3nc4ccccc4s3)c2O[C@H]1CN(C)S(=O)(=O)c1ccccc1`, the AC50 in [15] is 39 µM (inactive); in assay [16], 2.55 µM (active).
As for `CCOc1ccc(-c2nc(CSCC(=O)N3CCN(c4cccc(OC)c4)CC3)c(C)o2)cc1`, the EC50 in the assay on HEK293 [17] was 5.87 µM (active); in assay [19], 48 µM (active). In addition, the IC50 with HEK293 [18] is 4.42 µM (active); with HEK293 [20], 8.52 µM (active); with HEK293 [21] it was 5.09 µM (active); at Nonstructural protein 1 it was > 100 µM (active); in assay [22], 4 µM (active).
